In ChEMBL document CHEMBL4842349, “Enhanced pyrazolopyrimidinones cytotoxicity against glioblastoma cells activated by ROS-Generating cold atmospheric plasma” (Eur J Med Chem, 2021):
Calls of active or inactive are those of the source. No cut-off for these calls is given here.

Columns and labels:
U-251 [1] = test: Cytotoxicity against human U-251MG cells assessed as reduction in cell viability measured after 48 hrs by alamar blue assay; type: functional, cell-based; conditions: U-251, 48 h
U-251 [2] = test: Cytotoxicity against cold atmospheric plasma (CAP)-treated human U-251MG cells assessed as decrease in cell viability treated with CAP for 30 secs followed by incubated with compound for 48 hrs by alamar blue assay; type: functional, cell-based; conditions: U-251, 48 h
U-251 [3] = test: Prodrug activation in human U-251MG cells assessed as enhancement of cytotoxicity pretreated with prodrug followed by cold atmospheric plasma (CAP) treatment for 10 to 40 sec in culture medium and measured after 48 hrs by alamar blur assay; type: functional, cell-based
U-251 [4] = test: Cytotoxicity against human U-251MG cells assessed as decrease in cell viability by measuring combination index treated with cold atmospheric plasma for 10 secs followed by incubated with compound for 48 hrs by alamar blue assay; type: functional
U-251 [5] = test: Cytotoxicity against human U-251MG cells assessed as reduction in cell viability at 0.3 uM measured after 48 hrs by alamar blue assay relative to control; type: functional
U-251 [6] = test: Cytotoxicity against human U-251MG cells assessed as reduction in cell viability at 290 uM measured after 48 hrs by alamar blue assay relative to control; type: functional
U-251 [7] = test: Cytotoxicity against human U-251MG cells assessed as reduction in cell viability at 2000 uM measured after 48 hrs by alamar blue assay relative to control; type: functional
U-251 [8] = test: Cytotoxicity against human U-251MG cells assessed as decrease in live cells stained with green (Calcein-AM) at 0.3 to 2000 uM measured after 48 hrs by Live/dead staining based fluorescent analysis; type: functional, cell-based; conditions: dose 0.3-2000 µM
U-251 [9] = test: Cytotoxicity against human U-251MG cells assessed as increase in dead cells stained with red (EthD-1) at 0.3 to 2000 uM measured after 48 hrs by Live/dead staining based fluorescent analysis; type: functional, cell-based; conditions: dose 0.3-2000 µM
U-251 [10] = test: Cytotoxicity against human U-251MG cells assessed as distinct morphological changes at 0.3 to 2000 uM measured after 48 hrs by Live/dead staining based fluorescent analysis; type: functional, cell-based; conditions: dose 0.3-2000 µM
HEK293 [11] = test: Cytotoxicity against human HEK293 cells assessed as reduction in cell viability measured after 48 hrs by alamar blue assay; type: functional, cell-based; conditions: HEK293, 48 h
[12] = Prodrug activation in human U-251MG cells assessed as increase in cold atmospheric plasma (CAP) induced ROS-mediated cytotoxicity treated with CAP for 30 secs in DMSO followed by incubated with compound for 48 hrs by alamar blue assay; type: functional, cell-based; conditions: U-251, 48 h
[13] = Prodrug activation in human U-251MG cells assessed as increase in cold atmospheric plasma (CAP) induced ROS-mediated cytotoxicity treated with CAP for 10 mins in DMSO followed by incubated with compound for 48 hrs by alamar blue assay; type: functional, cell-based
[14] = Prodrug activation in human U-251MG cells assessed as increase in cold atmospheric plasma (CAP) induced ROS-mediated cytotoxicity treated with CAP for 10 secs followed by incubated with compound for 48 hrs by alamar blue assay; type: functional, cell-based; conditions: U-251, 48 h
[15] = Prodrug activation in human U-251MG cells assessed as increase in cold atmospheric plasma (CAP) induced ROS-mediated cytotoxicity treated with CAP for 20 secs followed by incubated with compound for 48 hrs by alamar blue assay; type: functional, cell-based; conditions: U-251, 48 h
[16] = Prodrug activation in human U-251MG cells assessed as increase in cold atmospheric plasma (CAP) induced ROS-mediated cytotoxicity treated with CAP for 30 secs followed by incubated with compound for 48 hrs by alamar blue assay; type: functional, cell-based; conditions: U-251, 48 h
[17] = Prodrug activation in human U-251MG cells assessed as increase in cold atmospheric plasma (CAP) induced ROS-mediated cytotoxicity treated with CAP for 40 secs followed by incubated with compound for 48 hrs by alamar blue assay; type: functional, cell-based; conditions: U-251, 48 h
[18] = Prodrug activation in human U-251MG cells assessed as increase in cold atmospheric plasma (CAP) induced ROS-mediated cytotoxicity treated with CAP for 40 secs followed by incubated with compound for 48 hrs in presence of NAC by alamar blue assay; type: functional, cell-based; conditions: U-251, 48 h
U-251 [19] = test: Prodrug activation in human U-251MG cells assessed as cell cytotoxicity treated with prodrug in overnight storage cold atmospheric plasma (CAP) activated culture medium for 48 hrs by Alamar blue assay; type: functional, cell-based
U-251 [20] = test: Prodrug activation in CAP treated human U-251MG cells assessed as cell cytotoxicity incubated with cold atmospheric plasma (CAP) treated culture medium for 0 to 5 hrs followed by incubation with fresh medium containing prodrug for 48 hrs by Alamar blue assay; type: functional, cell-based
[21] = Prodrug activation in human U-251MG cells assessed as decrease in cell viability at low concentrations in presence of AAPH measured after 48 hrs by Alamar blue assay; type: functional
[22] = Prodrug activation in human HEK293 cells assessed as decrease in cell viability at low concentrations in presence of AAPH measured after 48 hrs by Alamar blue assay; type: functional
U-251 [23] = test: Prodrug activation in human U-251MG cells assessed as enhancement of cytotoxicity at >200 uM in presence of 3 mM AAPH measured after 48 hrs by Alamar blue assay; type: functional, cell-based; conditions: dose microM >200, time 48.0 hrs
HEK293 [24] = test: Prodrug activation in human HEK293 cells assessed as enhancement of cytotoxicity at >200 uM in presence of 3 mM AAPH measured after 48 hrs by Alamar blue assay; type: functional, cell-based; conditions: dose microM >200, time 48.0 hrs
U-251 [25] = test: Prodrug activation in human U-251MG cells assessed as enhancement of cytotoxicity at >200 uM combined with 0.5 mMAAPH measured after 48 hrs by Alamar blue assay; type: functional, cell-based; conditions: dose microM >200, time 48.0 hrs
HEK293 [26] = test: Prodrug activation in human HEK293 cells assessed as enhancement of cytotoxicity at >200 uM combined with 0.5 mM AAPH measured after 48 hrs by Alamar blue assay; type: functional, cell-based; conditions: dose microM >200, time 48.0 hrs
U-251 [27] = test: Cytotoxicity against human U-251MG cells assessed as decrease in cell viability by measuring combination index treated with cold atmospheric plasma for 20 secs followed by incubated with compound for 48 hrs by alamar blue assay; type: functional
U-251 [28] = test: Cytotoxicity against human U-251MG cells assessed as decrease in cell viability by measuring combination index treated with cold atmospheric plasma for 30 secs followed by incubated with compound for 48 hrs by alamar blue assay; type: functional
U-251 [29] = test: Cytotoxicity against human U-251MG cells assessed as decrease in cell viability by measuring combination index treated with cold atmospheric plasma for 40 secs followed by incubated with compound for 48 hrs by alamar blue assay; type: functional
U-251 [30] = test: Cytotoxicity against human U-251MG cells assessed as decrease in cell viability incubated for 6 days by alamar blue assay; type: functional, cell-based; conditions: U-251, 144 h
U-251 [31] = test: Cytotoxicity against cold atmospheric plasma (CAP)-treated human U-251MG cells assessed as decrease in cell viability treated with CAP for 15 secs followed by incubated with compound for 6 days by alamar blue assay; type: functional, cell-based; conditions: U-251, 144 h
U-251 [32] = test: Cytotoxicity against cold atmospheric plasma (CAP)-treated human U-251MG cells assessed as decrease in cell viability treated with CAP for 30 secs followed by incubated with compound for 6 days by alamar blue assay; type: functional, cell-based; conditions: U-251, 144 h

CC(C)c1cc2[nH]c(-c3cc(C(F)(F)F)cc(C(F)(F)F)c3)cc(=O)n2n1
IC50 (U-251 [1]): 42.9 µM | IC50 (U-251 [2]): 19 µM

O=c1cc(-c2ccccc2)[nH]c2cc(-c3ccccc3)nn12
IC50 (U-251 [1]): 77.7 µM | IC50 (U-251 [2]): 73.6 µM

O=c1cc(-c2ccccc2)[nH]c2cc(-c3cccc(Cl)c3)nn12
IC50 (U-251 [1]): 23.3 µM | IC50 (U-251 [2]): 38.2 µM

Cc1c(-c2ccccc2)[nH]c2cc(C(C)C)nn2c1=O
IC50 (U-251 [1]): 137 µM | IC50 (U-251 [2]): 86.3 µM

COc1ccc(-c2cc(=O)n3nc(C(C)C)cc3[nH]2)cc1
IC50 (U-251 [1]): 197 µM | IC50 (U-251 [2]): 127 µM

CC(C)(C)c1cc2[nH]c(-c3cc(C(F)(F)F)cc(C(F)(F)F)c3)cc(=O)n2n1
IC50 (U-251 [1]): 367 µM | IC50 (U-251 [2]): 462 µM

Cc1cc(C)cc(-c2cc(=O)n3nc(C)cc3[nH]2)c1
Activity (U-251 [3]): inactive

O=c1cc(-c2ccccc2)[nH]c2cc(-c3ccc(F)cc3)nn12
IC50 (U-251 [1]): 74.6 µM | IC50 (U-251 [2]): 44.4 µM

Cc1ccc(-c2cc3[nH]c(-c4ccccc4)cc(=O)n3n2)cc1
IC50 (U-251 [1]): 148 µM | IC50 (U-251 [2]): 86.7 µM

CC(C)c1cc2[nH]c(-c3ccc([N+](=O)[O-])cc3)cc(=O)n2n1
IC50 (U-251 [1]): 25.5 µM | IC50 (U-251 [2]): 12.9 µM

Cc1cc2[nH]c(-c3ccccc3)cc(=O)n2n1
CI (U-251 [4]): 0.311 | IC50 (U-251 [1]): 293 µM | IC50 (U-251 [2]): 56.8 µM | Activity (U-251 [5]): 100% | Activity (U-251 [6]): 50% | Activity (U-251 [7]): 10% | Activity (U-251 [8]): Active | Activity (U-251 [9]): Active | Activity (U-251 [10]): Active | IC50 (HEK293 [11]): 123 µM | IC50 [12]: 215 µM | IC50 [13]: 246 µM | IC50 [14]: 54.4 µM | IC50 [15]: 31.1 µM | IC50 [16]: 39.2 µM | IC50 [17]: 37.1 µM | IC50 [18]: 95.7 µM | Activity (U-251 [19]): inactive | Activity (U-251 [20]): inactive | Activity [21]: 50% | Activity [22]: 50% | Activity (U-251 [23]): inactive | Activity (HEK293 [24]): inactive | Activity (U-251 [25]): inactive | Activity (HEK293 [26]): inactive | CI (U-251 [27]): 0.3352 | CI (U-251 [28]): 0.4756 | CI (U-251 [29]): 0.578

COc1ccc(-c2cc(=O)n3nc(-c4ccccc4)cc3[nH]2)cc1
IC50 (U-251 [1]): 13.4 µM | IC50 (U-251 [2]): 5670 µM

CC(C)(C)c1cc2[nH]c(C(C)(C)C)cc(=O)n2n1
IC50 (U-251 [1]): 941 µM | IC50 (U-251 [2]): 62.4 µM

Cn1nnc2c(C(N)=O)ncn2c1=O [TEMOZOLOMIDE]
IC50 (U-251 [30]): 12.7 µM | IC50 (U-251 [31]): 7.28 µM | IC50 (U-251 [32]): 6.43 µM

CCCCc1cc2[nH]c(-c3cc(C(F)(F)F)cc(C(F)(F)F)c3)cc(=O)n2n1
IC50 (U-251 [1]): 11.3 µM | IC50 (U-251 [2]): 11.4 µM

Cc1cc(C)cc(-c2cc(=O)n3nc(C(C)C)cc3[nH]2)c1
IC50 (U-251 [1]): 502 µM | IC50 (U-251 [2]): 609 µM
